In patent EP4631501A1, “COMBINATIONS OF A CALCIUM HOMEOSTASIS DISRUPTOR WITH A DEATH RECEPTOR 5 AGONIST FOR TREATING CANCER” (Stichting Het Nederlands Kanker Instituut- Antoni van …, priority 2024, dated 2025):
Read-outs that look alike come from different tables or passages of the source.

Legend:
[1] = system: A549 lung cancer cells; type: in vivo, BALB/c nude mice
Description: (§1) In order to obtain a synergistic effect, we combed low doses of DR5 agonist antibody either IgG-conatumumab or IgA-conatumumab with salinomycin, as senolytic cocktails. […] To test this senolytic cocktail in vivo, we used both immunodeficient and immunocompetent mouse models. We engrafted A549 cells into immunodeficient nude mice and Hepa1-6 liver cancer cells in syngeneic immunocompetent C57BL/6 mice. After tumors were established, we treated with alisertib to induce senescence and combinations of the two senolytic drugs.
(§2) Schematic of iCas9-associated senolytic CRISPR screen workflow. A549 cells were infected with a doxycycline-inducible Cas9 (iCas9) lentiviral vector. Next, Brunello lentiviral whole genome-wide gRNA collection virus was introduced to the A549-iCas9 cells. […] Changes in library representation after 10 days doxycycline treatment were determined by Illumina deep-sequencing. • (B). gRNAs prioritized for further analysis were selected by the fold depletion of abundance in S2 and S1 samples compared with that in P2 and P2 samples, using methods as described previously (Evers et al., Nat Biotech, 2016). […] Cell viability was assessed by colony formation assay in the A549 cells stably infected with doxycycline-inducible Cas9 (iCas9) lentiviral vectors and a guide RNAs target SLC25A23 lentiviral vector.

[2] = system: Hepa1-6 liver cancer cells; type: in vivo, C57BL/6 mice
Description: as §1, §2

[3] = system: A549 cells; experiment: Colony formation assay in SLC25A23 shRNA knock-down A549 cells treated with senescence inducers; type: cell-based; details: three independent shRNAs targeting SLC25A23
[4] = system: alisertib-induced senescent and proliferating A549; experiment: Western blot of cell death biomarkers in alisertib-induced senescent and proliferating A549
[5] = system: lung (A549), breast (MDA-MB-231, MCF-7, T47D) and liver (SK-Hep1) cancer models; experiment: Colony formation assay, senescent versus proliferating cancer cells treated with salinomycin
[6] = system: senescent cells; experiment: Cell morphology imaging of senescent cells treated with salinomycin
[7] = system: DR5; experiment: Western blot of DR5 induction in A549 cells treated with salinomycin and NAC; type: cell-based; details: salinomycin plus NAC
Description: (Fig. 3A). This notion was also supported by the western blot analysis. We observed that an upregulation of death receptor 5 (DR5), cleavage of caspase 3 and 8 (cl-CASP8 and 3), indicates extrinsic apoptosis activation. […] In Figure 3B, we noticed the upregulation of cJUn and DR5 by salinomycin treatment. This has been denoted by the past studies showing salinomycin could modulate autophagy to induce ROS (Verdoodt 2012). The elevated ROS led to cJun upregulation and NF-kB activation to increase the DR5 expression (Fu 2010). To validated molecular mechanism in our senescent models, we knocked-down cJun, NF-kB2 and Nrf2 using shRNA. […]
• Figure 1: CRISPR-based senolytic screen identifies SLC25A23 as a senolytic target • (A). […] Changes in library representation after 10 days doxycycline treatment were determined by Illumina deep-sequencing. • (B). gRNAs prioritized for further analysis were selected by the fold depletion of abundance in S2 and S1 samples compared with that in P2 and P2 samples, using methods as described previously (Evers et al., Nat Biotech, 2016). […] Cell viability was assessed by colony formation assay in the A549 cells stably infected with doxycycline-inducible Cas9 (iCas9) lentiviral vectors and a guide RNAs target SLC25A23 lentiviral vector. […] Cell viability was assessed by colony formation assay in the A549 and MDA-MB-231 cells. […]

COc1cc(Nc2ncc3c(n2)-c2ccc(Cl)cc2C(c2c(F)cccc2OC)=NC3)ccc1C(=O)O [alisertib]
tumor growth ([1]; A549 in nude mice, 25 mg kg-1 alisertib, 1.5 mg kg-1 salinomycin, 5 µg per dose conatumumab (2.5 µg in three-way combination)): limited tumor growth inhibition
tumor growth ([2]; Hepa1-6 in C57BL/6 mice, 25 mg kg-1 alisertib, 1.5 mg kg-1 salinomycin, 0.3 µg per dose MD5-1): limited tumor growth inhibition
sensitivity of SLC25A23 suppressed cells to senescence inducers [3]: highly sensitive

CC[C@@H](C(=O)[C@@H](C)[C@@H](O)[C@H](C)[C@@H]1O[C@@H]([C@@H](CC)C(=O)O)CC[C@@H]1C)[C@H]1O[C@]2(C=C[C@@H](O)[C@]3(CC[C@@](C)([C@H]4CC[C@](O)(CC)[C@H](C)O4)O3)O2)[C@H](C)C[C@@H]1C [salinomycin]
Microtubule-associated protein 1A/1B-light chain 3 (LC3) [4]: upregulation
cJUn [4]: upregulation
caspase 3 and 8 (cl-CASP8 and 3) [4]: cleavage
cleaved Gasdermin-D (cl-GSDMD) [4]: upregulation
death receptor 5 (DR5) [4]: upregulation
mixed lineage kinase domain-like protein (MLKL) phosphorylation [4]: increased phosphorylation
tumor growth ([1]; mouse, in vivo): limited tumor growth inhibition
tumor growth ([2]; mouse, in vivo): limited tumor growth inhibition
killing of senescent cells versus proliferating cells [5]: preferential killing of senescent cells over proliferating cells
cell death phenotype under the microscope [6]: PANoptosis phenotype

COc1cc([C@@H]2c3cc4c(cc3[C@@H](O[C@@H]3O[C@@H]5CO[C@@H](C)O[C@H]5[C@H](O)[C@H]3O)[C@H]3COC(=O)[C@H]23)OCO4)cc(OC)c1O [etoposide]
sensitivity of SLC25A23 suppressed cells to senescence inducers [3]: highly sensitive

COc1ccc2c(c1)C1(CC1c1ccc3c(C=Cc4ccc(CN5CC(C)OC(C)C5)cc4)n[nH]c3c1)C(=O)N2 (stereo not shown) [CFI-400945]
sensitivity of SLC25A23 suppressed cells to senescence inducers [3]: highly sensitive

CC(=O)N[C@@H](CS)C(=O)O [N-Acetyl Cysteine (NAC), N-Acetyl Cysteine]
DR5 upregulation in salinomycin treated cells [7]: could reserve the DR5 upregulation
